Reference: US12116421B2, “Peptide-based Dopa containing adhesive gels” (KING ABDULLAH UNIVERSITY OF SCIENCE AND TECHNOLOGY, priority 2020, dated 2024)
Where a SMILES comes first, the peptide text is derived from it. [ ]: non-standard residue; d: D form. Dopa = N[C@@H](Cc1ccc(O)c(O)c1)C(=O)O; Cha = N[C@@H](CC1CCCCC1)C(=O)O

Assays:
[1] = system: mouse myoblast cells (C2C12); assay: Cytocompatibility of peptide nanogels, 3D culture, MTT and live/dead staining; format: cell-based; details: for effect on cell growth: C2C12, nanogel 3 mg/mL, compared to 2D culture; for biocompatibility with C2C12 cells: hydrogel scaffold, live/dead staining versus 2D culture
Procedure: In one embodiment, cytocompatibility of the peptide nanogels was evaluated using mouse myoblast cells (C2C12). After 24 hours of incubation, cell proliferation was tested with DoIIZK, IIZDoK, IIZKDo, IIZ(KDo)2 and IIZ(KDo)3 at a concentration of 3 mg/mL to evaluate biocompatibility. The MTT (3-(4,5-dimethylthiazol-2-yl)-2,5-diphenyltetrazolium bromide) assay was used in order to quantify the number of viable cells. In one embodiment, a standard curve for a known number of cells was also plotted. In one embodiment, the test results were compared to the positive control 2D culture. A positive indication of cytocompatibility would be the survival of the cells following incubation with the peptides. For comparison, peptides DoIIZK, IIZDoK, IIZKDo, IIZ(KDo)2 and IIZ(KDo)3 were tested as part of the study. The cytocompatibilty of all peptides tested was evaluated by quantifying the survival cells by visualising the live/dead cells using calcein AM and Ethidium bromide staining.
Poli-D Lysine (PDL) was used for 2D control. The scalebar in FIG. 35 is 200 μm. Cytocompatibility of all peptides was evaluated by quantifying the survival cells by visualising the live/dead cells using calcein AM and Ethidium homodimer staining. The live cells are stained green by calcein AM, while the dead cells are stained red by Ethidium homodimer.
For mouse myoblast cells (C2C12) culture expansion, C2C12 cells were cultured either in a T175 or T75 culture flask in complete DMEM media (10% FBS and 1% P/S). The cells were placed in a humidified incubator at 37° C., with 95% air and 5% CO2. Then they were subcultured using trypsin at approximately 80% confluence. Fresh culture media was added every 48 h to each well, after removing the previous media.
For 3D culture of mouse myoblast cells in peptide hydrogels and cell viability assay, C2C12 cells were encapsulated in peptide hydrogels in a 96-well plate.^61 Briefly, peptide solutions DopaIIZK, IIZDopaK, IIZKDopa (3 mg/mL) were added to 40 μL/well. Mouse myoblast cells (30,000 cells/well) that were re-suspended in 2×PBS were then, mixed gently with the peptide solutions. The gelation time was 1-3 min for all 5 peptides. Subsequently, the culture medium was added to the wells.
The viability of 3D cultured cells was assessed using the LIVE/DEAD Viability/Cytotoxicity Kit (ThermoFisher®, USA)^11. Calcein acetoxymethyl ester (Calcein-AM) is used to detect viable cells and ethidium homodimer-I (EthD-I) is used to detect dead cells. Briefly, staining with 2 μM of Calcein-AM and 4 μM of EthD-1 is performed after washing with Dulbecco's phosphate-buffered saline (D-PBS). After 30 minutes incubation, the staining solution was discarded, and 1×D-PBS was added to each well before imaging. Stained cells were imaged with an inverted confocal microscope (Zeiss® LSM 710 Inverted Confocal Microscope, Germany) or ZEISS® fluorescent microscope.

[2] = system: mouse myoblast cells (C2C12); assay: as above; format: cell-based; details: various concentrations up to the solubility limit of the peptides
[3] = AFM force spectroscopy adhesion measurement in liquid; format: physicochemical
Procedure: In one embodiment, the peptides were dissolved in the proper solution at a concentration of 10 mg/mL. The peptide solutions were spotted on a freshly cleaved mica sheet and the measurement was performed in liquid.
In one embodiment, the adhesion properties of the Dopa peptides are influenced by the construct lysine-Dopa and by the position of the catechol moiety in the peptide sequence, as indicated by the AFM force spectroscopy results in liquid. In a typical force spectroscopy curve the probe is several times approached to the surface and retracted and for every cycle of retraction the maximum force of adhesion is recorded. The incorporation of a catechol moiety near a lysine would enhance adhesion to negatively charged surfaces. FIG. 28 illustrates the effect of lysine on adhesion to negatively charged surfaces. Therefore, probes and substrates that were manifesting negative charges on their surfaces, such as the silicon probe and the freshly cleaved mica substrate, are used in the AFM spectroscopy. The setup of probe and substrate is illustrated in FIG. 29.
The peptides dissolved in the proper solution at 13 mM concentration each, were spotted on a freshly cleaved mica sheet and the measurement was performed in liquid. Several force curves were recorded for different buffers. […] In FIG. 30, the inset image represents the maximum extension of each peptide dissolved in water, when manually pulled between two glass slides. Also in FIG. 30, the approach part of the curve contains the important information defined as “jump to contact”, while the retract part of the F-D curve contains the adhesion force value. […] Two controls were also introduced: namely the original peptide IIZK, and an alternative peptide IIFK. To better understand the influence of Dopa on the adhesion properties of the peptide, the original short peptide IIZK would make a perfect negative control. We also introduced as a control the IIFK peptide in order to understand the effect of IIZK itself on adhesion. In FIG. 32, statistical significance expressed as p<0.01.
AFM topography measurements were performed on a Dimension Icon SPM (Bruker®). The samples were prepared as follows: peptides were dissolved at 13 mM concentration in MilliQ® water; after 30 minutes, 20 μl of these solutions were dropped on freshly cleaved mica sheets and immediately dried with an N2 stream. Measurements were immediately performed in tapping mode in air by the use of an AFM probe AC_240TS_R3 (Olympus®) with nominal free oscillation at roughly 70 kHz and a nominal spring constant of 2 N/m. The probe was calibrated by contact-free method.^54 Free oscillation amplitude was set at 200 mV with a 5% damping during tapping mode measurement. AFM adhesion measurements were performed on a JPK Nanowizard™ III mounted on Olympus® IX-81 inverted optical microscope. A mica sheet was glued one day before the experiment with double component epoxy glue to a glass slide and enclosed in a plastic o-ring provided by the JPK company for liquid measurements. Each peptide was dissolved in MilliQ® water at a concentration of 13 mM and mixed gently. Starting with the measurement in MilliQ® water, 50 μL of the solution were dropped on the freshly cleaved mica sheet within 5 minutes from the preparation of the solution and let equilibrate for 10 minutes. After, the excess solution was removed by pipetting and discarded. Then 1 mL of MilliQ® water was added gently from the side and after 5 minutes, the sample was rinsed 3 times by additional 1 mL MilliQ® water. Finally, the sample was measured by AFM force spectroscopy (Quantitative imaging mode) with additional 1 mL MilliQ® water. The MilliQ® water was exchanged after the measurement alternatively with a water solution containing 137 mM NaCl or 10 mM Phosphate ions (a combination of Na2HPO4·7H2O and NaH2PO4·H2O to reach pH 7.4). After performing the force spectroscopy map in these two different solutions, eventually, the liquid was exchanged with 1×PBS pH 7.4. […]

Row | Molecule | effect on cell growth [1] | metabolic activity of cells versus 2D cultures ([1]; cells cultured in nanogels, 2D = cells in absence of peptides) | time cells stay metabolically active in nanogel ([1]; cells grown in nanogels) | biocompatibility with C2C12 cells [1] | cell viability / toxicity [2] | Force of adhesion (Geometric Mean) ([3]; 10 mM PO4, peptide 13 mM) [PN] | Force of adhesion (Geometric Mean) ([3]; 137 mM NaCl, peptide 13 mM) [PN] | Force of adhesion (Geometric Mean) ([3]; 1×PBS, peptide 13 mM) [PN] | Force of adhesion (Geometric Mean) ([3]; MilliQ water, peptide 13 mM) [PN] | increase of adhesion force by addition of NaCl ([3]; NaCl versus MilliQ water) [%] | reduction of adhesion values by addition of both NaCl and PO4 ([3]; NaCl and PO4 versus MilliQ water)
1 | CC[C@H](C)[C@H](NC(C)=O)C(=O)N[C@H](C(=O)N[C@@H](CC1CCCCC1)C(=O)N[C@@H](CCCCN)C(=O)N[C@@H](Cc1ccc(O)c(O)c1)C(=O)N[C@@H](CCCCN)C(=O)N[C@@H](Cc1ccc(O)c(O)c1)C(N)=O)[C@@H](C)CC [IIZ(KDo)2] (Ac-II[Cha]K[Dopa]K[Dopa]-NH2) | did not affect cell growth | consistently comparable to 2D cultures | metabolically active for up to day 21 | biocompatible | good viability |  |  |  |  |  | 
2 | CC[C@H](C)[C@H](NC(C)=O)C(=O)N[C@H](C(=O)N[C@@H](CC1CCCCC1)C(=O)N[C@@H](CCCCN)C(=O)N[C@@H](Cc1ccc(O)c(O)c1)C(=O)N[C@@H](CCCCN)C(=O)N[C@@H](Cc1ccc(O)c(O)c1)C(=O)N[C@@H](CCCCN)C(=O)N[C@@H](Cc1ccc(O)c(O)c1)C(N)=O)[C@@H](C)CC [IIZ(KDo)3] (Ac-II[Cha]K[Dopa]K[Dopa]K[Dopa]-NH2) | reduced cell growth |  |  | not biocompatible | toxic |  |  |  |  |  | 
3 | Ac-II[Cha]K-NH2 [IIZK, reference compound] |  |  |  |  |  | 5.681 | 100.4 | 11.5885 | 75.66 | 20 | 
4 | Ac-Ile-Ile-Phe-Lys-NH2 (Ac-IIFK-NH2) [alternative peptide used as control, reference compound] |  |  |  |  |  | 8.358 | 13.217 | 12.13 | 89.77 |  | about 80%
